Results reported in EP4813991A1 (iLeadBMS Co., Ltd., priority 2023, dated 2025).
Like-named read-outs stand apart in the source and are kept apart here.

Columns and labels:
[1] = biological target: T1, CDK12 (Homo sapiens, UniProt Q9NYV4); assay: CDK12 kinase inhibitory activity assay (33P-ATP filter binding); assay type: biochemical
How it was run: (§1)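 Compound in 9 concentrations pre-incubated 20 min with kinase and substrate, then ^33P-γ-ATP added and reacted 120 min at room temperature. Phosphorylated substrate captured on filter, washed with 0.75 % phosphoric acid and counted; activity as % of DMSO control, IC50 fitted.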

[2] = biological target: CDK13 (Homo sapiens, UniProt Q14004); assay: CDK13 kinase inhibitory activity assay (33P-ATP filter binding); assay type: biochemical
CDK13, sequence (Q14004 whole entry, species assumed): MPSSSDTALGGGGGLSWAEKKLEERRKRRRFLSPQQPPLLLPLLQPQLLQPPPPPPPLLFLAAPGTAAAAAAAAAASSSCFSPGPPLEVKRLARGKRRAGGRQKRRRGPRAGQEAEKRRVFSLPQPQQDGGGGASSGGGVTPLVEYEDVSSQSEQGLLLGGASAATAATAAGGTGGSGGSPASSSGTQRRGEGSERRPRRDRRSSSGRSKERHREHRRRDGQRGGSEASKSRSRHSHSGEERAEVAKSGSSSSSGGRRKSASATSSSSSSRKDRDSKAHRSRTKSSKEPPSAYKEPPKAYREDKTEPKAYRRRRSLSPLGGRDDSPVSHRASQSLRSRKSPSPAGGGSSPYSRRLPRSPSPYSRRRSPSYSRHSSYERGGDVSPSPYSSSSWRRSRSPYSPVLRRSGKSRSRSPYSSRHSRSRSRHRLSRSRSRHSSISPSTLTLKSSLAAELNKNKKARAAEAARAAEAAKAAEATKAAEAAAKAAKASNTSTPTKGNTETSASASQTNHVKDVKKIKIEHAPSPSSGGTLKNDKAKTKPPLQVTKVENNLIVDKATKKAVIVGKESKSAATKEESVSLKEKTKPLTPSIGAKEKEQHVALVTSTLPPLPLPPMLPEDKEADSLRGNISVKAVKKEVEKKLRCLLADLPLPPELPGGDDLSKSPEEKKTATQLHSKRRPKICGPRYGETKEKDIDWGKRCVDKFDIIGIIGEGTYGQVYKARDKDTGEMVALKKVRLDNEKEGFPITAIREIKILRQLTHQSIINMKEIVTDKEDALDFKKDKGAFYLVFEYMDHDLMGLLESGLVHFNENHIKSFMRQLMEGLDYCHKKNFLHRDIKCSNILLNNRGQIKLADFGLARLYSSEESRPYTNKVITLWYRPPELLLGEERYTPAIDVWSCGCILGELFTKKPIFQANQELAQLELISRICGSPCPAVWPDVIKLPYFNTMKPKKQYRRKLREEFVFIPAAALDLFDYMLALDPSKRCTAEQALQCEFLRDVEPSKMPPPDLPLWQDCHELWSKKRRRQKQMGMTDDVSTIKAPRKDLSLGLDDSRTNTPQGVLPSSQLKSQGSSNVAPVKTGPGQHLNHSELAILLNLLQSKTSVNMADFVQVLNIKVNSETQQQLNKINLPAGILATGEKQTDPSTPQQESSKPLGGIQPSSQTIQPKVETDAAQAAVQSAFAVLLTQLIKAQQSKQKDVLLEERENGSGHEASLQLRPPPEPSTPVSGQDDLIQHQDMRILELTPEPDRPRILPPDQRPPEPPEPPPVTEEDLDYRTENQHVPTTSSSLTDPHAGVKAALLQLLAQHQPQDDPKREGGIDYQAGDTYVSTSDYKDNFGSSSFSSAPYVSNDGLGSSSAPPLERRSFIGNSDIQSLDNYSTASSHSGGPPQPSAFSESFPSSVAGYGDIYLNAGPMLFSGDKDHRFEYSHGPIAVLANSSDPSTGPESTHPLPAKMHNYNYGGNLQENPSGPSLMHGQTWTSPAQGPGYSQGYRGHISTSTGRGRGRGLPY
CDK13, sequence (O75909 whole entry partner, species assumed): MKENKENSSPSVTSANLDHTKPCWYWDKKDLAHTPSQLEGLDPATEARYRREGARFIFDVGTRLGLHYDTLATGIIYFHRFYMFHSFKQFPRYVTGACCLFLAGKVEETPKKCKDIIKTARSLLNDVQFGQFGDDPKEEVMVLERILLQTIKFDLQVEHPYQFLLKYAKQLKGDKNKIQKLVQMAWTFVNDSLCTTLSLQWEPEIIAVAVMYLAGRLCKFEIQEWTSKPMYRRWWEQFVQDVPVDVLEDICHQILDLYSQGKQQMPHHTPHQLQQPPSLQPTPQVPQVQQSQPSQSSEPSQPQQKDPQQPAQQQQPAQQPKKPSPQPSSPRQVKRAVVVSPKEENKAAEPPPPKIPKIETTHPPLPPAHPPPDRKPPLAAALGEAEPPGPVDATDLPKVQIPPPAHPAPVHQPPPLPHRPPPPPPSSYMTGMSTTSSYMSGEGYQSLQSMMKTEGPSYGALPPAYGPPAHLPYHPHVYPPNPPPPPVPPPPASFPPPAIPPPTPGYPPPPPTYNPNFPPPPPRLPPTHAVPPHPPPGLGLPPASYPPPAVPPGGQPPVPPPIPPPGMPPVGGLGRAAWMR
How it was run: as §1

[3] = system: MDA-MB-231 breast cancer cells; assay: Proliferation inhibitory activity assay against MDA-MB-231 breast cancer cells; assay type: cell-based; details: Homo sapiens, 72 hours, CellTiter Glo, relative IC50
How it was run: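 Cells grown in L-15 with 10% FBS at 37 °C, 0% CO2, then exposed next day to compounds at 9 concentrations (DMSO vehicle) for 72 h. Viability read by CellTiter Glo luminescence; relative IC50 from dose-response curve fit.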

[4] = biological target: T1, CDK12; assay: Cellular CDK12 inhibitory activity assay (Ser2 phosphorylation of RNA polymerase II subunit B1 CTD in MDA-MB-231 cells); assay type: cell-based; design: using MDA-MB-231 breast cancer cells; endogenous in cells; host or cells: MDA-MB-231; details: MDA-MB-231 cells, 6 hours treatment; read-out: pRpbl CTD S2 IC50
How it was run: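 MDA-MB-231 cells in L-15 with 10 % FBS were treated with compound at 9 concentrations for 6 h at 37 °C, 0 % CO2. In-Cell Western read phospho-Ser2 and total RNA polymerase II CTD on a Li-COR Odyssey; IC50 from 4-parameter dose-response fit.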

[5] = kinase reaction 120 minutes, 33P-gamma-ATP, read-out: CDK12 IC50
[6] = kinase reaction 120 minutes, 33P-gamma-ATP, read-out: CDK13 IC50

T1 sequence (Q9NYV4 whole entry, species assumed): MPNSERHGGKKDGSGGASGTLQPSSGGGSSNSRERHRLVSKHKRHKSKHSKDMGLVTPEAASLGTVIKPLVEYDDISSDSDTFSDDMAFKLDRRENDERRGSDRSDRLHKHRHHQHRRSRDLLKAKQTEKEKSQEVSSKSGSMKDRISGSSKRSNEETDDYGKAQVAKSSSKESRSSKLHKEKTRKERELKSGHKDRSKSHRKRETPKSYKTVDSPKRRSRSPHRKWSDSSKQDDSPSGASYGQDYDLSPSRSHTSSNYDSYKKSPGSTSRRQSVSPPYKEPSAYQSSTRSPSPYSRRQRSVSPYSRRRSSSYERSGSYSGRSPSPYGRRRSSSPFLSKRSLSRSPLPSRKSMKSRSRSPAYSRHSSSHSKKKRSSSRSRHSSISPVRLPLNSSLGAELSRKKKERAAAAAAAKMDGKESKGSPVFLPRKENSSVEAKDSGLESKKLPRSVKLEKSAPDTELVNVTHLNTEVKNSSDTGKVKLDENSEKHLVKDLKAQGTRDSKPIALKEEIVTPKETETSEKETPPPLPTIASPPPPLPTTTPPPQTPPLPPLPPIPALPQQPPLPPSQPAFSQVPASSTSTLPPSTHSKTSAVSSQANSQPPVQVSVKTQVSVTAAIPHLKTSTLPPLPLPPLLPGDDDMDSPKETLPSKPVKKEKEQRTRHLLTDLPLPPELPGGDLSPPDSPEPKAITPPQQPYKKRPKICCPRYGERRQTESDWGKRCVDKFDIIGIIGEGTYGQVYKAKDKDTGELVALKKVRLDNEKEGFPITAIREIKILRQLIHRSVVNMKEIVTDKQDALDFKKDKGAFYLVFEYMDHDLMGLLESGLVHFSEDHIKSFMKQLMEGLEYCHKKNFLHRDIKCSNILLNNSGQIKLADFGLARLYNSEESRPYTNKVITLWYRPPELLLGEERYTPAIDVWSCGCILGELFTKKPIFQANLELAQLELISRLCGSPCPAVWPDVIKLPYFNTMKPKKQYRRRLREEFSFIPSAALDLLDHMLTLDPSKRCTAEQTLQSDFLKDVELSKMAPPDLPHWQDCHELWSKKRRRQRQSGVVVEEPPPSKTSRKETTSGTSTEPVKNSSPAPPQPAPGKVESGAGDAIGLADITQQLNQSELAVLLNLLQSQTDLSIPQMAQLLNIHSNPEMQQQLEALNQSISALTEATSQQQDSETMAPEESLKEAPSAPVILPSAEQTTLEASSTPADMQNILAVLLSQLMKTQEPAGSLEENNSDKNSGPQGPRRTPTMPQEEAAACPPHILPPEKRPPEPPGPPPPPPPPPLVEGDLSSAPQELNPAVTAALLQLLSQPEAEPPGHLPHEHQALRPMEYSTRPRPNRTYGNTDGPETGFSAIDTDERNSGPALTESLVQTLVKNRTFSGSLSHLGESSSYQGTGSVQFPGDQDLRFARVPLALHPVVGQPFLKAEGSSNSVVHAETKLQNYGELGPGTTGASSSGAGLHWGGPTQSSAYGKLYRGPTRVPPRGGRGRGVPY
T1 sequence (O75909 whole entry partner, species assumed): as the sequence (O75909 whole entry partner, species assumed) above

Structure (SMILES) | IC50 [1, 5] [µM] | IC50 [2] [µM] | IC50 [3] [µM] | IC50 [4] [µM] | IC50 [2, 6] [µM] | IC50 [1] [µM]
NC(=O)N1CCN(c2cc(NCc3nc4cc(Cl)c(Cl)cc4[nH]3)c3ncc(C(F)(F)F)n3n2)CC1 [Example 66, 4-(8-(((5,6-dichloro-1H-benzo[d]imidazol-2-yl)methyl)amino)-3-(trifluoromethyl)imidazo[1,2-b]pyridazin-6-yl)piperazine-1-carboxamide] | < 0.1 | < 0.1 | 0.05 to 0.5 | < 0.3 |  | 
C#Cc1cnc2c(NCc3nc4ccc(F)c(F)c4[nH]3)cc(N3CCOCC3)nn12 [Example 1, N-((6,7-difluoro-1H-benzo[d]imidazol-2-yl)methyl)-3-ethynyl-6-morpholinoimidazo[1,2-b]pyridazin-8-amine] | 0.1 to 0.5 | < 0.1 | 0.05 to 0.5 | 0.3 to 3 |  | 
CN1CC2CC(C1)N2c1cc(NCc2nc3cc(Cl)c(Cl)cc3[nH]2)c2ncc(C(F)(F)F)n2n1 [Example 100, N-((5,6-dichloro-1H-benzo[d]imidazol-2-yl)methyl)-6-(3-methyl-3,6-diazabicyclo[3.1.1]heptan-6-yl)-3-(trifluoromethyl)imidazo[1,2-b]pyridazin-8-amine] | < 0.1 |  | ≤ 0.05 | < 0.3 | < 0.1 | 
O[C@@H]1CCN(c2cc(NCc3nc4cc(Cl)c(Cl)cc4[nH]3)c3ncc(C(F)(F)F)n3n2)C1 [Example 62, (R)-1-(8-(((5,6-dichloro-1H-benzo[d]imidazol-2-yl)methyl)amino)-3-(trifluoromethyl)imidazo[1,2-b]pyridazin-6-yl)pyrrolidin-3-ol] | 0.1 to 0.5 | 0.1 to 0.5 | 0.05 to 0.5 | < 0.3 |  | 
CC1(O)CN(c2cc(NCc3nc4cc(Cl)c(Cl)cc4[nH]3)c3ncc(C(F)(F)F)n3n2)C1 [Example 52, 1-(8-(((5,6-dichloro-1H-benzo[d]imidazol-2-yl)methyl)amino)-3-(trifluoromethyl)imidazo[1,2-b]pyridazin-6-yl)-3-methylazetidin-3-ol] | 0.1 to 0.5 |  | ≤ 0.05 | < 0.3 | < 0.1 | 
CN1C2CCC1CN(c1cc(NCc3nc4cc(Cl)c(Cl)cc4[nH]3)c3ncc(C(F)(F)F)n3n1)C2 [Example 33] | < 0.1 |  | ≤ 0.05 | < 0.3 | < 0.1 | 
CC(C)(O)C1CN(c2cc(NCc3nc4cc(Cl)c(Cl)cc4[nH]3)c3ncc(C(F)(F)F)n3n2)C1 [Example 48, 2-(1-(8-(((5,6-dichloro-1H-benzo[d]imidazol-2-yl)methyl)amino)-3-(trifluoromethyl)imidazo[1,2-b]pyridazin-6-yl)azetidin-3-yl)propan-2-ol] | > 0.5 |  | 0.05 to 0.5 | < 0.3 | 0.1 to 0.5 | 
FC(F)(F)c1cnc2c(NCc3nc4cc(Cl)c(Cl)cc4[nH]3)cc(N3CC4CCC(C3)N4)nn12 [Example 94, 6-(3,8-diazabicyclo[3.2.1]octan-3-yl)-N-((5,6-dichloro-1H-benzo[d]imidazol-2-yl)methyl)-3-(trifluoromethyl)imidazo[1,2-b]pyridazin-8-amine] | < 0.1 |  | ≤ 0.05 | < 0.3 | < 0.1 | 
Cc1cnc2c(NCc3nc4ccc(F)c(F)c4[nH]3)cc(N3CCOCC3)nn12 [Example 4, N-((6,7-difluoro-1H-benzo[d]imidazol-2-yl)methyl)-3-methyl-6-morpholinoimidazo[1,2-b]pyridazin-8-amine] | > 0.5 |  | > 0.5 | > 3 | 0.1 to 0.5 | 
FC(F)(F)c1cnc2c(NCc3nc4cc(Cl)c(Cl)cc4[nH]3)cc(N3CCNCC3)nn12 [Example 57, N-((5,6-dichloro-1H-benzo[d]imidazol-2-yl)methyl)-6-(piperazin-1-yl)-3-(trifluoromethyl)imidazo[1,2-b]pyridazin-8-amine] | < 0.1 |  | ≤ 0.05 | < 0.3 | < 0.1 | 
OC1CC2(C1)CN(c1cc(NCc3nc4cc(Cl)c(Cl)cc4[nH]3)c3ncc(C(F)(F)F)n3n1)C2 [Example 47, 2-(8-(((5,6-dichloro-1H-benzo[d]imidazol-2-yl)methyl)amino)-3-(trifluoromethyl)imidazo[1,2-b]pyridazin-6-yl)-2-azaspiro[3.3]heptan-6-ol] | 0.1 to 0.5 |  | ≤ 0.05 | < 0.3 | < 0.1 | 
C[C@@H]1CN(c2cc(NCc3nc4cc(Cl)c(Cl)cc4[nH]3)c3ncc(C(F)(F)F)n3n2)C[C@H](C)N1 [Example 39, N-((5,6-dichloro-1H-benzo[d]imidazol-2-yl)methyl)-6-((3S,5R)-3,5-dimethylpiperazin-1-yl)-3-(trifluoromethyl)imidazo[1,2-b]pyridazin-8-amine] | < 0.1 |  | ≤ 0.05 | < 0.3 | < 0.1 | 
Fc1ccc2nc(CNc3cc(N4CC5CCC(C4)N5)nn4c(C(F)(F)F)cnc34)[nH]c2c1F [Example 10, 6-(3,8-diazabicyclo[3.2.1]octan-3-yl)-N-((6,7-difluoro-1H-benzo[d]imidazol-2-yl)methyl)-3-(trifluoromethyl)imidazo[1,2-b]pyridazin-8-amine] | < 0.1 |  | ≤ 0.05 | < 0.3 | < 0.1 | 
N#CC1CN(c2cc(NCc3nc4ccc(Cl)c(Cl)c4[nH]3)c3ncc(C(F)(F)F)n3n2)C1 [Example 55, 1-(8-(((6,7-dichloro-1H-benzo[d]imidazol-2-yl)methyl)amino)-3-(trifluoromethyl)imidazo[1,2-b]pyridazin-6-yl)azetidine-3-carbonitrile] | < 0.1 |  | 0.05 to 0.5 | 0.3 to 3 | < 0.1 | 
Fc1ccc2nc(CNc3cc(N4CC5CCC4CO5)nn4c(C(F)(F)F)cnc34)[nH]c2c1F (stereo not drawn) [Example 12] |  |  | ≤ 0.05 | < 0.3 | < 0.1 | < 0.1

The next lines start with results.

IC50 [1, 5] [µM] | IC50 [2] [µM] | IC50 [3] [µM] | IC50 [4] [µM] | IC50 [2, 6] [µM] | Structure (SMILES) | IC50 [1] [µM]
< 0.1 | < 0.1 | 0.05 to 0.5 | 0.3 to 3 |  | Cc1cc(C)n2cc(CNc3cc(N4CCOCC4)nn4c(C(F)(F)F)cnc34)nc2n1 [Example 88, N-((5,7-dimethylimidazo[1,2-a]pyrimidin-2-yl)methyl)-6-morpholino-3-(trifluoromethyl)imidazo[1,2-b]pyridazin-8-amine] | 
> 0.5 |  | 0.05 to 0.5 | 0.3 to 3 | 0.1 to 0.5 | FC(F)(F)c1cc2nc(CNc3cc(N4CCOCC4)nn4c(C(F)(F)F)cnc34)[nH]c2cc1C(F)(F)F [Example 81, N-((5,6-bis(trifluoromethyl)-1H-benzo[d]imidazol-2-yl)methyl)-6-morpholino-3-(trifluoromethyl)imidazo[1,2-b]pyridazin-8-amine] | 
< 0.1 | < 0.1 | 0.05 to 0.5 | 0.3 to 3 |  | FC(F)(F)c1cnc2c(NCc3cn4ccccc4n3)cc(N3CCOCC3)nn12 [Example 82, N-(imidazo[1,2-a]pyridin-2-ylmethyl)-6-morpholino-3-(trifluoromethyl)imidazo[1,2-b]pyridazin-8-amine] | 
0.1 to 0.5 | < 0.1 | 0.05 to 0.5 | < 0.3 |  | O[C@H]1CCN(c2cc(NCc3nc4cc(Cl)c(Cl)cc4[nH]3)c3ncc(C(F)(F)F)n3n2)C1 [Example 63, (S)-1-(8-(((5,6-dichloro-1H-benzo[d]imidazol-2-yl)methyl)amino)-3-(trifluoromethyl)imidazo[1,2-b]pyridazin-6-yl)pyrrolidin-3-ol] | 
> 0.5 |  | 0.05 to 0.5 | 0.3 to 3 | > 0.5 | FC(F)(F)c1cnc2c(NCc3nc4cc(Cl)c(Cl)cc4o3)cc(N3CCOCC3)nn12 [Example 91, N-((5,6-dichlorobenzo[d]oxazol-2-yl)methyl)-6-morpholino-3-(trifluoromethyl)imidazo[1,2-b]pyridazin-8-amine] | 
< 0.1 |  | > 0.5 | 0.3 to 3 | < 0.1 | FC(F)(F)c1cnc2c(NCc3cc4ccccn4n3)cc(N3CCOCC3)nn12 [Example 86, 6-morpholino-N-(pyrazolo[1,5-a]pyridin-2-ylmethyl)-3-(trifluoromethyl)imidazo [1,2-b]pyridazin-8-amine] | 
< 0.1 | < 0.1 | > 0.5 | > 3 |  | FC(F)(F)c1cnc2c(NCc3cn4ncccc4n3)cc(N3CCOCC3)nn12 [Example 85, N-(imidazo[1,2-b]pyridazin-2-ylmethyl)-6-morpholino-3-(trifluoromethyl)imidazo[1,2-b]pyridazin-8-amine] | 
< 0.1 | < 0.1 | ≤ 0.05 | < 0.3 |  | O=C(CO)C1CCN(c2cc(NCc3nc4cc(Cl)c(Cl)cc4[nH]3)c3ncc(C(F)(F)F)n3n2)CC1 [Example 114, 1-(1-(8-(((5,6-dichloro-1H-benzo[d]imidazol-2-yl)methyl)amino)-3-(trifluoromethyl)imidazo[1,2-b]pyridazin-6-yl)piperidin-4-yl)-2-hydroxyethan-1-one] | 
< 0.1 | < 0.1 | 0.05 to 0.5 | 0.3 to 3 |  | FC(F)(F)c1cnc2c(NCc3cn4cccnc4n3)cc(N3CCOCC3)nn12 [Example 83, N-(imidazo[1,2-a]pyrimidin-2-ylmethyl)-6-morpholino-3-(trifluoromethyl)imidazo[1,2-b]pyridazin-8-amine] | 
